Inconclusive results and toxic doses are left out. Rule as the data show it: active = T/C of 150% or more; inactive = T/C below 125%.
Test system: L1210 leukemia ip in BDF1 mice, survival T/C
Assay: NCI In Vivo Anticancer Drug Screen. Data for tumor model L1210 Leukemia (intraperitoneal) in B6D2F1 (BDF1) mice
Details: endpoint: mean survival time, vehicle: saline, higher = longer survival
Procedure, shortened: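 Survival endpoint. Drug-treated group vs vehicle group, expressed as T divided by C. Tumor passaged by transplantation.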

Measured: T/C

NC(=O)Nc1cc(NC(N)=O)cc([N+](=O)[O-])c1
inactive: dose: 100.0 mg/kg/injection, schedule: Q01DX009 (ip) 95 % of control | dose: 100.0 mg/kg/injection, schedule: Q04DX003 (ip) 110 % of control | dose: 200.0 mg/kg/injection, schedule: Q01DX009 (ip) 88 % of control | dose: 200.0 mg/kg/injection, schedule: Q04DX003 (ip) 104 % of control | dose: 400.0 mg/kg/injection, schedule: Q01DX009 (ip) 93 % of control | dose: 400.0 mg/kg/injection, schedule: Q04DX003 (ip) 110 % of control
